In brackets after ≈: the same amount, converted by molar mass. Counter-ions that a name gives are not always drawn.
Columns and labels:
[1] = solubility according to the General Rules of the Japanese Pharmacopoeia 14th Edition; assay type: physicochemical; conditions: for solubility in Solution 1: Solution 1 of the Japanese Pharmacopoeia; for solubility in Solution 1 / solubility in Solution 2: 20±5° C. within 30 minutes; for solubility in Solution 2: Solution 2 of the Japanese Pharmacopoeia; for solubility in Water: powder shaken 30 seconds every 5 minutes at 20±5° C. within 30 minutes
Description: […]. In accordance with the General Rules of the Japanese Pharmacopoeia 14th Edition, solubility (μg/mL) herein refers to an amount of a substance dissolved in a solvent after the substance in powder is placed in the solvent and the sample is shaken strongly for 30 seconds every 5 minutes at 20±5° C. within 30 minutes.

[2] = order in stability among crystal forms by solvent-mediated transformation of a mixture of crystals; assay type: physicochemical; conditions: order may change depending on the solvent and temperature
Description: The order in stability among the crystal forms of each acid salt can be examined by solvent-mediated transformation of a mixture of crystals, but the order may change depending on the solvent and temperature. […]. […] […].

Cc1cccc2scc(Cn3c(SCCCC(=O)O)nc4ccccc43)c12 [Crystal A, 4-(1-((4-methylbenzothiophen-3-yl)methyl)benzimidazol-2-ylthio)butanoic acid, reference compound]
solubility in Solution 1 [1]: 2.5 µg/mL (≈ 6.3 µM)
solubility in Solution 2 [1]: 1.9 µg/mL (≈ 4.79 µM)

Cc1cccc2scc(Cn3c(SCCCC(=O)O)nc4ccccc43)c12.Cl [Crystal-HB, 4-(1-((4-methylbenzothiophen-3-yl)methyl)benzimidazol-2-ylthio)butanoic acid hydrochloride]
relative stability of crystal form [2]: more stable than the other crystal forms

Cc1cccc2scc(Cn3c(SCCCC(=O)O)nc4ccccc43)c12 [Crystal-SA, 4-(1-((4-methylbenzothiophen-3-yl)methyl)benzimidazol-2-ylthio)butanoic acid sulfate]
solubility in Solution 1 ([1]; sulfate): 8.6 µg/mL
solubility in Solution 2 ([1]; sulfate): 67.3 µg/mL

Cc1cccc2scc(Cn3c(SCCCC(=O)O)nc4ccccc43)c12 [Crystal-SB, 4-(1-((4-methylbenzothiophen-3-yl)methyl)benzimidazol-2-ylthio)butanoic acid sulfate]
solubility in Solution 1 ([1]; sulfate): 19.8 µg/mL
solubility in Solution 2 ([1]; sulfate): 24.2 µg/mL
solubility in Water ([1]; sulfate): 0.8 µg/mL

Cc1cccc2scc(Cn3c(SCCCC(=O)O)nc4ccccc43)c12 [Crystal-SC, 4-(1-((4-methylbenzothiophen-3-yl)methyl)benzimidazol-2-ylthio)butanoic acid sulfate]
relative stability of crystal form ([2]; sulfate): more stable than the other four crystal forms
solubility in Solution 1 ([1]; sulfate): 10.6 µg/mL
solubility in Solution 2 ([1]; sulfate): 72.4 µg/mL
solubility in Water ([1]; sulfate): 0.1 µg/mL

Cc1cccc2scc(Cn3c(SCCCC(=O)O)nc4ccccc43)c12 [Crystal-SF, 4-(1-((4-methylbenzothiophen-3-yl)methyl)benzimidazol-2-ylthio)butanoic acid sulfate]
relative stability of crystal form ([2]; sulfate): close to that of crystal-SA
solubility in Solution 1 ([1]; sulfate): 7.6 µg/mL
solubility in Solution 2 ([1]; sulfate): 74.0 µg/mL
solubility in Water ([1]; sulfate): 0.1 µg/mL

Cc1cccc2scc(Cn3c(SCCCC(=O)O)nc4ccccc43)c12 [Crystal-SG, 4-(1-((4-methylbenzothiophen-3-yl)methyl)benzimidazol-2-ylthio)butanoic acid sulfate]
relative stability of crystal form ([2]; sulfate): less stable than crystal-SF
